Assay results as given in patent publication US20240041976A1, “COMPOSITION AND USE” (priority 2020, published 2024).

Experiments:
Format in all cases: cell-based, Staphylococcus aureus
[1] = tested on: three MRSA strains (ATCC33591-lux, USA-300 and MRSA 43484); experiment: AAMP assay and checkerboard synergy, summary
Description: Briefly, equal amounts of antimicrobial A were applied on microtiter plate 1 in wells A1-H1 and then diluted two-fold to wells 2-12. Similarly, equal amounts of antimicrobial B were applied on microtiter plate 2 in wells A1-A12 and diluted two-fold in wells B-H. Volumes of 50 μl of antimicrobial A from each well of microtiter plate 1 were transferred into microtiter plate 3, except for wells H1-H12. Similarly, the same volumes were transferred from microtiter plate 2 into plate 3, except for wells A1-A8. […] A 50 μl volume of pure broth was added into each well in lines H1-H12 and A1-A8 which were used to estimate MIC values of pure substances (blank).
Three-component synergy was assessed by mixing the three components (100 μg of PenG, 50 μg of GarKS and 2.5 μg of MP1) into one well of a microtiter plate, compared with activity of individual antimicrobials on the same plate.

S. aureus LMG3242 = experiment: AAMP assay (MIC), single components and formulation mixture; conditions: Staphylococcus aureus, LMG3242, 24 h; read-out: MIC, single component
Description: (§1) Antimicrobial activity was measured using the AAMP assay (Wiegand et al., 2008, Nat. Protoc., Vol. 3(2), p 163-175).
(§2) Three-component synergy was assessed by mixing the three components (100 μg of PenG, 50 μg of GarKS and 2.5 μg of MP1) into one well of a microtiter plate, compared with activity of individual antimicrobials on the same plate. The fractional inhibition concentration (FIC) which was used to define synergy was calculated as set forth in Example 1.

S. aureus LMG3264 = experiment: as above; conditions: Staphylococcus aureus, LMG3264, 24 h; read-out: MIC, single component
Description: as §1, §2

S. aureus LMG3026 = experiment: as above; conditions: Staphylococcus aureus, LMG3026, 24 h; read-out: MIC, single component
Description: as §1, §2

S. aureus LMG3271 = experiment: as above; conditions: Staphylococcus aureus, LMG3271, 24 h; read-out: MIC, single component
Description: as §1, §2

S. aureus LMG3328 = experiment: as above; conditions: Staphylococcus aureus, LMG3328, 24 h; read-out: MIC, single component
Description: as §1, §2

S. aureus LMG3266 = experiment: as above; conditions: Staphylococcus aureus, LMG3266, 24 h; read-out: MIC, single component
Description: as §1, §2

S. aureus LMG3307 = experiment: as above; conditions: Staphylococcus aureus, LMG3307, 24 h; read-out: MIC, single component
Description: as §1, §2

S. aureus LMG3255 = experiment: as above; conditions: Staphylococcus aureus, LMG3255, 24 h; read-out: MIC, single component
Description: as §1, §2

S. aureus LMG3322 = experiment: as above; conditions: Staphylococcus aureus, LMG3322, 24 h; read-out: MIC, single component
Description: as §1, §2

S. aureus LMG3265 = experiment: as above; conditions: Staphylococcus aureus, LMG3265, 24 h; read-out: MIC, single component
Description: as §1, §2

S. aureus LMG3314 = experiment: as above; conditions: Staphylococcus aureus, LMG3314, 24 h; read-out: MIC, single component
Description: as §1, §2

S. aureus LMG3258 = experiment: as above; conditions: Staphylococcus aureus, LMG3258, 24 h; read-out: MIC, single component
Description: as §1, §2

S. aureus LMG3263 = experiment: as above; conditions: Staphylococcus aureus, LMG3263, 24 h; read-out: MIC, single component
Description: as §1, §2

MRSA USA-300 = experiment: AAMP assay and checkerboard synergy; conditions: MRSA USA-300
Description: as §1
(§3) Synergy testing was done with a microtiter plate checkerboard assay as previously described (Orhan et al., 2005, J. Clin. Microbiol., Vol. 43(1), p 140-143). Briefly, equal amounts of antimicrobial A were applied on microtiter plate 1 in wells A1-H1 and then diluted two-fold to wells 2-12. Similarly, equal amounts of antimicrobial B were applied on microtiter plate 2 in wells A1-A12 and diluted two-fold in wells B-H. Volumes of 50 μl of antimicrobial A from each well of microtiter plate 1 were transferred into microtiter plate 3, except for wells H1-H12. Similarly, the same volumes were transferred from microtiter plate 2 into plate 3, except for wells A1-A8. A 100 μl volume of 25 times diluted ON bacterial culture of MRSA was transferred into each well of plate 3. A 50 μl volume of pure broth was added into each well in lines H1-H12 and A1-A8 which were used to estimate MIC values of pure substances (blank).
as §2

MRSA ATCC 33591-lux = experiment: AAMP assay and checkerboard synergy; conditions: MRSA ATCC 33591-lux
Description: as §1, §3, §2

MRSA 43484 = experiment: AAMP assay and checkerboard synergy; conditions: MRSA 43484
Description: as §1, §3, §2

MRSA = experiment: MIC of the mixture dissolved in 5% HPC; conditions: Staphylococcus aureus, MRSA, read-out: final MIC of the component in the mixture in HPC
Description: as §1
We also tested hydroxypropyl cellulose (HPC) which is a more hydrophilic polymer and commonly used for topical and oral pharmaceutical preparations (Alvarez-Lorenzo et al., 1999, Int. J. Pharmaceutics, Vol. 180(1), p 91-103).

[2] = triple combination PenG, GarKS and MP1
[3] = Staphylococcus aureus, 24 h, read-out: MIC, single antimicrobial

## C/C=C(\NC(=O)c1csc(-c2csc(-c3ccc4c(n3)-c3csc(n3)[C@H]([C@@H](C)O)NC(=O)c3csc(n3)[C@H](C(C)C)NC(=O)c3csc(n3)/C(=C/C)NC(=O)[C@H]([C@@H](C)O)NC(=O)c3csc-4n3)n2)n1)C(=O)NC[C@@H](C)O [MP1, micrococcin P1]
[1]; All three strains
  MIC of the antimicrobial in comb. with GarKS: 0.16 µg/mL
[1]; MP1 with PenG
  MIC of the component when combined: 0.16 to 0.3 µg/mL
  reduction of MIC when combined: 8-16 times
[1]; checkerboard assay
  MIC of the component when GarKS and MP1 are combined: 0.16 µg/mL
[1]; [2]
  MIC of the component when combined: 0.08 µg/mL
  reduction of MIC when combined: about 30 times
S. aureus LMG3242
  MIC: 0.4 µg/mL
S. aureus LMG3264
  MIC: > 1.8 µg/mL
S. aureus LMG3026
  MIC: > 1.8 µg/mL
S. aureus LMG3271
  MIC: > 1.8 µg/mL
S. aureus LMG3328
  MIC: 0.9 µg/mL
S. aureus LMG3266
  MIC: > 1.8 µg/mL
S. aureus LMG3307
  MIC: 0.9 µg/mL
S. aureus LMG3255
  MIC: > 1.8 µg/mL
S. aureus LMG3322
  MIC: > 1.8 µg/mL
S. aureus LMG3265
  MIC: 1.8 µg/mL
S. aureus LMG3314
  MIC: 0.4 µg/mL
S. aureus LMG3258
  MIC: 1.8 µg/mL
S. aureus LMG3263
  MIC: 1.8 µg/mL
MRSA USA-300
  MIC of the antimicrobial in comb. with GarKS: 0.16 µg/mL
MRSA USA-300; [3]
  MIC: 2.5 µg/mL
MRSA ATCC 33591-lux
  MIC of the antimicrobial in comb. with GarKS: 0.16 µg/mL
MRSA 43484
  MIC of the antimicrobial in comb. with GarKS: 0.16 µg/mL
MRSA 43484; [3]
  MIC: 2.5 µg/mL
MRSA
  MIC: 0.04 µg/mL
